From patent US9629857B2, “Therapeutic uses of glutathione mimics” (BOARD OF TRUSTEES OF NORTHERN ILLINOIS UNIVERSITY, priority 2007, dated 2017)

Legend:
[1] = after first pass metabolism; cited from earlier work
[2] = system: alkaline phosphatase; test: Digestion of the phosphorylated prodrug with alkaline phosphatase, followed by 31P NMR; assay type: in vitro ADME; details: 1 mg (10 units) alkaline phosphatase in water, stirred for 2 hours
Protocol: N-acetyl-S-phosphocysteine was synthesized according to the procedure followed by Binkely (1954). N-acetyl cysteine (0.5 g) was dissolved in 8 mL of distilled water in an ice bath. The NAC solution was then treated with 0.2 mL of phosphorus oxychloride and with sodium hydroxide to maintain the basic pH of 11. The resulting white solid was dried and re-dissolved in deuterium oxide for ^31P, ^13C and ^1H NMR analysis. After analysis, the sample was dried, re-suspended in water, and treated with 1 mg (10 units) of alkaline phosphatase, and stirred for 2 hours. The solution was dried and resuspended in deuterium oxide for NMR analysis.
Synthesis of ester cysteine was followed according to the procedure as follows. NAC (0.2 g) was dissolved in 7 mL of ethanol, 2 mL of concentrated hydrochloric acid and stirred at room temperature for 1 hour. The reaction mixture was refluxed for 1 hour at 60° C. The sample was then dried and resuspended in acetonitrile for ESI-MS analysis (same instrument settings as described for analysis of HIDD). The acid protected sample was phosphorylated with POCL3, and sodium hydroxide dried and resuspended in deuterium oxide for NMR analysis. After analysis, the sample was dried, resuspended in water, treated with 1 mg (10 units) of alkaline phosphatase and stirred for 2 hours. […]
The ester NAC was synthesized according to the procedure as follows and analyzed with ESI-MS. […]

CC(=O)N[C@@H](CS)C(=O)O [NAC, N-acetyl cysteine]
presence of free drug in the systemic circulation [1]: around 9%

CC(=O)N[C@@H](CSP(=O)(O)O)C(=O)O [phosphorylated NAC, N-acetyl-S-phosphocysteine]
cleavage of S—P linkage on digestion with alkaline phosphatase (31P NMR) [2]: hydrolyzed with alkaline phosphatase
